“Also recorded” adds a separate entry of the source.
Key:
Sertoli cells = assay: Cell death and apoptotic features in Lindane-treated Sertoli cells; type: cell-based, mouse
Method: Autophagy was induced either by starvation or by treatment with Lindane under nutrient-rich condition. For Lindane treatment, cells were serum-starved for 2-16 hours in DMEM/Ham's F12 (1:1, GIBCO #61965-026: F12 GIBCO #31765-027) supplemented with either 1% Insulin-Transferrin-SeleniumA (GIBCO #51300-044) or 0.1% bovine serum albumin (A7030, Sigma) and treated with Lindane (50 µM, Sigma, H4500).
(§1) The ultrastructural changes caused by Lindane or starvation in Sertoli and renal cells were analysed by transmission electron microscopy, as previously described (57). […] Cell pellets were then rinsed in cacodylate buffer, postfixed in 1% OsO4 for 1 h at 4°C, dehydrated through graded ethanol washes, and embedded in epoxy resin. Oriented […] sections were obtained with diamond knives, and representative areas were chosen for ultra-thin sectioning. Thin 1-µm sections were mounted on copper mesh grids, stained with uranyl acetate and lead citrate, and examined on a JEOL 1200 EXII electron microscope. 30-50 micrographs were taken randomly from each sample at primary magnification × 10,000.

CFTR Cl^- channel [1] = biological target: CFTR Cl^- channel (Mus musculus, UniProt P26361); assay: Whole-cell patch-clamp Cl- currents in Sertoli cells; type: cell-based; design: endogenous in cells; host or cells: Sertoli 42GPA9 cell line (mouse)
CFTR Cl^- channel (Mus musculus, UniProt P26361), sequence (P26361 whole entry): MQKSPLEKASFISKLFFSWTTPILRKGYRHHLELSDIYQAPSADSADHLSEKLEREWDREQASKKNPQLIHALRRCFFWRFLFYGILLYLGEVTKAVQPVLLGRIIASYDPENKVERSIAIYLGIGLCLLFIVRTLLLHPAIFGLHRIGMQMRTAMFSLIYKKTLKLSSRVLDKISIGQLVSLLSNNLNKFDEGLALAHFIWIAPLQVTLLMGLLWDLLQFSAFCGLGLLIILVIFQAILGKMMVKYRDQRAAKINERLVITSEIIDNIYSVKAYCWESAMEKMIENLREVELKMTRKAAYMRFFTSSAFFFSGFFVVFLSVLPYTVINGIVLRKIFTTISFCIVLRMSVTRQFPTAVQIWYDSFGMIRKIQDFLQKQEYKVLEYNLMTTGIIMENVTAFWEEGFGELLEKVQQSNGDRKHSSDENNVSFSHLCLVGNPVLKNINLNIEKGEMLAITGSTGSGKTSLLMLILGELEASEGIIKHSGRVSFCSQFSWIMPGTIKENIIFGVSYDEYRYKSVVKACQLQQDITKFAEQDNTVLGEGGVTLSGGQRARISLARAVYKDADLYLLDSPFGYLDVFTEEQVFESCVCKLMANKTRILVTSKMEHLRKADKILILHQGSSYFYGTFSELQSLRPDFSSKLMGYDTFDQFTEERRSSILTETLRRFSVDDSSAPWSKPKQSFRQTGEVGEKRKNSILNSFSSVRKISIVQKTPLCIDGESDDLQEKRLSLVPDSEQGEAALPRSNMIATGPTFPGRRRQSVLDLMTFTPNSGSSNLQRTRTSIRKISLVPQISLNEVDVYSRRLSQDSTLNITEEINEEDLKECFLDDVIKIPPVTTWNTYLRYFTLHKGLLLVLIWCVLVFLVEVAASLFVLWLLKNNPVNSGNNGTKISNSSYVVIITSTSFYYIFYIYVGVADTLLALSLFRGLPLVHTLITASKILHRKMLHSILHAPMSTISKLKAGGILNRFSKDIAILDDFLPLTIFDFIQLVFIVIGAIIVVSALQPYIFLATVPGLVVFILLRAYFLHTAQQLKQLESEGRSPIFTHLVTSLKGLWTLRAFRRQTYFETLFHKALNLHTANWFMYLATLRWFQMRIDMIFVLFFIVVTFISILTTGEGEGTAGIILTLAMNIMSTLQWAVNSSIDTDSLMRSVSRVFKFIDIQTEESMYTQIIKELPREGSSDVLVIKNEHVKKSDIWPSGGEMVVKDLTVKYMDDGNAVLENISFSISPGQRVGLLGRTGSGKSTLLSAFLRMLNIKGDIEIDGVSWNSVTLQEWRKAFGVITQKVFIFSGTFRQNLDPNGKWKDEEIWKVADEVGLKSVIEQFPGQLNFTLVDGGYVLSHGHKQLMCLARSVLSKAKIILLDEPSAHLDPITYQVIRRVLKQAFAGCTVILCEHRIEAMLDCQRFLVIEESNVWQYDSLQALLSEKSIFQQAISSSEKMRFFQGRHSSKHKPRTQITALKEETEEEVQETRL
Method: (§2) Whole cell currents were monitored from Sertoli cells, CFTR^-/- and WT renal epithelial cells with an RK 400 amplifier (Biologic, Münster, Germany) as previously described (40). The bath (extracellular) solution consisted of 140 mM NMDGCl (N-methyl-D-glucamine chloride), 5 mM D-Glucose, 1 mM CaCl2, and 10 mM HEPES, pH 7.4. Patch pipette (intracellular) solution contained 140 mM NMDGCl, 5 mM D-Glucose, 5 mM EGTA, 5 mM MgATP, and 10 mM HEPES, pH 7.4. Osmolarity of both solutions was adjusted to 280 mOSM by adding mannitol. These solutions were designed to study Cl^- currents because Cl^- is the sole permeant ion in these conditions and to prevent Ca^2+ activated Cl^- currents by the addition of EGTA in the patch solution. After establishment of whole cell configuration, cells were stimulated by the addition of Lindane (50 µM), FSK (10 µM), vehicle (Me2S0 or ethanol) in the absence or the presence of NPPB (0.1mM), DIDS (4,4'-diisothiocyanatostilbene-2,2'-disulfonic acid, 1 mM, Sigma), glibenclamide (0.1mM, Sigma) or PD98059 (10 µM) in the bath solution. The cell membrane potential was clamped at -50mV and 400 ms pulses were applied from -100 to +120 mV with increments of 20 mV every 2 s. To generate whole cell current-voltage (I-V) relationship, membrane currents resulting from voltage stimuli were recorded for at least 3 min and analysed using an IBM-AT-compatible computer equipped with Digidata 1200 interface (Axon Instruments) and pCLAMP software (versions 5.51 and 6.0, Axon Instruments), respectively. Statistics-Results are expressed as mean ± S.E. of n observations using the Student's t test.

CFTR Cl^- channel [2] = assay: Whole-cell patch-clamp Cl- currents in CFTR+/+ and CFTR-/- renal distal cells; type: cell-based, mouse
Text: To address the importance of CFTR in autophagy, renal cells derived from distal tubules or the proximal convoluted tubules of Wild type (WT or CFTR^+/+) or CFTR deficient (CFTR^-/-) mice (40) were isolated and immortalized with the pSV3 neo vector, as described below (55).
Whole cell currents were monitored from Sertoli cells, CFTR^-/- and WT renal epithelial cells with an RK 400 amplifier (Biologic, Münster, Germany) as previously described (40). The bath (extracellular) solution consisted of 140 mM NMDGCl (N-methyl-D-glucamine chloride), 5 mM D-Glucose, 1 mM CaCl2, and 10 mM HEPES, pH 7.4. Patch pipette (intracellular) solution contained 140 mM NMDGCl, 5 mM D-Glucose, 5 mM EGTA, 5 mM MgATP, and 10 mM HEPES, pH 7.4. Osmolarity of both solutions was adjusted to 280 mOSM by adding mannitol. […] To generate whole cell current-voltage (I-V) relationship, membrane currents resulting from voltage stimuli were recorded for at least 3 min and analysed using an IBM-AT-compatible computer equipped with Digidata 1200 interface (Axon Instruments) and pCLAMP software (versions 5.51 and 6.0, Axon Instruments), respectively. Statistics-Results are expressed as mean ± S.E. of n observations using the Student's t test.

p42^ERK2 and p44^ERK1 = assay: ERK activation by anti-phospho-ERK Western blotting of cell lysates; type: cell-based, mouse
Text: (§3) After stripping, equal loadings of proteins were verified by reprobing the blots with anti-ERK1 (Santa Cruz Biotechnology).

CFTR Δex10 = assay: Whole-cell patch-clamp Cl- currents in renal proximal PCT cells; type: cell-based, mouse
Method: as §2

p38 = p38 / Jun kinase activation by Western blotting of Sertoli cell lysates; type: cell-based, mouse; settings: Anisomycin 10 µg/ml, 15 min; phosphorylation of p38 and MK2
Text: as §3

Sertoli 42GPA9 cells = assay: Autophagic vacuolation of Sertoli cells (light, electron and confocal microscopy); type: cell-based, mouse
Method: Autophagy was induced either by starvation or by treatment with Lindane under nutrient-rich condition.
When bafilomycin A1 (BafA1, V-ATPase-specific inhibitor, 100 nM, Sigma); Park Davis Inhibitor PD98059 (MEK1-specific inhibitor, 10 µM, Cell Signaling), H89 (PKA inhibitor, 5 µM, Calbiochem), 3-Methyladenine (3 MA, autophagy-specific inhibitor, 10-30 mM, Sigma) or NPPB [5-nitro-2-(3-phenylpropylamino) benzoic acid, Cl^- channel blocker, 25 µM, Sigma] was used, it was added to the starvation medium for 90 min, prior to Lindane addition or nutrient deprivation.
as §1, with “Thin 1-µm sections were mounted on copper mesh grids, stained with uranyl acetate and lead citrate, and examined on a JEOL 1200 EXII electron microscope.” left out
Sertoli cells seeded on glass coverslips were transiently transfected with EGFP-Rab7 or MEK1^+-HA expression plasmids using Fugene 6 reagent (Roche), washed and allowed to recover overnight before addition of Lindane (50 µM). […] To determine the pH of the Lindane-induced vacuoles, living cells were stained with acridine-orange (5 µg/ml, Sigma), a membrane-permeable weak base whose fluorescence shifts from green at neutral pH to red in acidic compartments (59). 10 min later, cells were washed and directly observed under a confocal microscope.

Structure (SMILES): Cl[C@H]1[C@H](Cl)[C@@H](Cl)[C@@H](Cl)[C@H](Cl)[C@H]1Cl [Lindane, γ-hexachlorocyclohexane]
- dead cells (Sertoli cells; Lindane 50 µM): little if any dead cells
- propidium iodide staining of vacuolated cells (Sertoli cells; Lindane 50 µM, late stages): did not stain with propidium iodide
- apoptotic features (caspase 3 activation, PARP cleavage, chromatin condensation, nuclear pyknosis, mitochondria degeneration) (Sertoli cells; Lindane-treated cells): absence of several apoptotic morphological and biochemical features
- cell lysis on longer exposure (Sertoli cells; exposure for four days): not associated with cell lysis
- anion selectivity sequence of induced currents (CFTR Cl^- channel [1]): Br^-≥ Cl^->>I^-
- Cl^- conductance across plasma membrane (CFTR Cl^- channel [1]; Lindane 50 µM): increased within minutes
- reversal potential of induced currents (CFTR Cl^- channel [1]; symmetrical Cl- solutions): ~ 0 mV
- induction of Cl^- currents in CFTR^+/+ renal distal cells (CFTR Cl^- channel [2]; Lindane 50 µM): induction of Cl^- currents
- reversed potential of induced currents (CFTR Cl^- channel [2]; renal distal cells, n = 8): ~ 0 mV
- ERK stimulation in CFTR^-/- cells (p42^ERK2 and p44^ERK1; CFTR^-/- renal cells): still stimulated
- duration of ERK activation (p42^ERK2 and p44^ERK1; Sertoli cells, Lindane): more than 24 h
- ERK activation in Sertoli cells (p42^ERK2 and p44^ERK1; Sertoli cells, Lindane 50 µM, DDT 1.8 µM, Bϕ 90 µM, PCP 15 µM): rapid and sustained activation of both p42^ERK2 and p44^ERK1; also recorded: induced the activation of both p42^ERK2 and p44^ERK1
- induction of Cl- current in PCT cells (CFTR Δex10; CFTR^+/+ PCT cells, Lindane 50 µM, forskolin 10 µM): induced a Cl- current
- Lindane-induced Cl- current in CFTR^-/- PCT cells (CFTR Δex10; CFTR^-/- PCT cells): total inhibition
- anion selectivity sequence of induced current (CFTR Δex10; PCT cells): Br^-≥ Cl^- >>I^-
- reversal potential of induced current (CFTR Δex10; PCT cells): ~ 0 mV
- effect on Anisomycin-induced p38 activity (p38): not ascribed to p38 inhibition
- size of autophagic vacuoles (Sertoli 42GPA9 cells; Lindane 50 µM, 24 h, electron microscopy): 2-20 µm^2
- autophagic vacuoles observed per cell (Sertoli 42GPA9 cells; Lindane 50 µM, 24 h, electron microscopy, n = 20 cells, average): ~ 50
- induction of vacuolation / autophagy by the chemical alone (Sertoli 42GPA9 cells; Lindane 50 µM, DDT 1.8 µM, Bϕ 90 µM, PCP 15 µM, SB203580 10 µM, NH4Cl 5 mM, 24 h): powerful activator of autophagy
- time of maximal vacuolation (Sertoli 42GPA9 cells; Lindane treatment): 24 to 48 h
- reversibility of vacuolation (Sertoli 42GPA9 cells; upon removal of the chemical): reversible upon Lindane removal
